According to PubChem BioAssay (NCI):
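In this assay, cells in 96-well plates receive the compound at five concentrations for 48 hours. Endpoints are linearly interpolated between the surrounding concentrations. GI50 = concentration required for 50% inhibition of growth. TGI denotes the concentration required for complete inhibition of growth.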

Assays:
Experiment in all cases: NCI anticancer screen, dose series, 48 h
[1] = test system: OVCAR-8 ovarian
[2] = test system: TK-10 renal
[3] = test system: SNB-75 CNS
[4] = test system: OVCAR-3 ovarian
[5] = test system: UACC-257 melanoma
[6] = test system: HCT-116 colon
[7] = test system: T-47D breast
[8] = test system: DU-145 prostate
[9] = test system: SR leukemia

SMILES | TGI [1] [µM] | TGI [2] [µM] | TGI [3] [µM] | TGI [4] [µM] | TGI [5] [µM] | TGI [6] [µM] | TGI [7] [µM] | TGI [8] [µM] | TGI [9] [µM] | GI50 [1] [µM] | GI50 [2] [µM] | GI50 [3] [µM] | GI50 [4] [µM] | GI50 [5] [µM] | GI50 [6] [µM] | GI50 [7] [µM] | GI50 [8] [µM] | GI50 [9] [µM]
CC(C)=C=CP(=O)(O)c1ccccc1 | > 100 | > 100 | > 100 | > 100 | > 100 | > 100 | > 100 | > 100 | > 100 | – | – | – | – | – | – | – | – | –
O=C(Cn1c(=O)oc2ccc(C(=O)c3cccc(Cl)c3)cc21)c1ccccc1 | > 100 | > 100 | > 100 | > 100 | > 100 | – | > 100 | > 100 | > 100 | – | – | – | – | – | – | – | – | –
CCCCOc1ccc(S(=O)(=O)/N=C(\NO)Nc2ccc(Cl)cc2)cc1 | 36.2 | 28.7 | – | 28.4 | 30.4 | 30.6 | 26.2 | 30.1 | 67.3 | – | – | – | – | – | – | – | – | –
Cc1cc(S(=O)(=O)Nc2n[nH]c(Nc3ccccc3)n2)c(SSc2cc(Cl)c(C)cc2S(=O)(=O)Nc2n[nH]c(Nc3ccccc3)n2)cc1Cl | > 100 | > 100 | > 100 | > 100 | > 100 | > 100 | > 100 | > 100 | > 100 | – | – | – | – | – | – | – | – | –
COc1ccc(S(=O)(=O)Nc2cc(Sc3cccc4cccnc34)c(O)c3ccccc23)cc1 | 18.8 | 13.7 | 13.5 | 3.81 | 6.04 | 2.35 | 5.64 | 2.65 | > 100 | 0.595 | 2.82 | 3.41 | 0.695 | 1.85 | 0.505 | 1.73 | 0.738 | 0.358
COc1ccc(/C=C(/c2ccc(OC)cc2)c2c(Cl)cc(Cl)c(/C(=C\c3ccc(OC)cc3)c3ccc(OC)cc3)c2N=Nc2ccccc2)cc1 | > 100 | > 100 | > 100 | > 100 | > 100 | > 100 | > 100 | > 100 | – | – | – | – | – | – | – | – | – | –
Cn1c(-c2c(C3=CC(=O)N(c4ccccc4)C3=O)c3ccccc3n2C)cc2ccccc21 | > 100 | > 100 | > 100 | > 100 | > 100 | > 100 | > 100 | > 100 | > 100 | – | – | – | – | – | – | – | – | –
Clc1ncnc2c1nc(C#Cc1ccccc1)n2C1CCCCO1 (stereo unspecified) | 12.4 | 5.11 | 7.78 | 2.92 | 6.01 | 4.02 | 4.55 | 2.79 | – | – | – | – | – | – | – | – | – | –
Cc1cc(O)c(C(C)C)cc1C(=S)Nc1ccc(Cl)cc1 | 24.2 | – | – | 27.9 | 23.8 | 26 | 29.2 | 31.5 | 20.4 | – | – | – | – | – | – | – | – | –
O=C(CN1CCN(c2ccccn2)CC1)N1CCCn2c1nc1ccccc1c2=O | > 100 | > 100 | > 100 | > 100 | > 100 | > 100 | > 100 | > 100 | > 100 | – | – | – | – | – | – | – | – | –
COC(=O)C(CNC(=O)/C=C/c1ccc(OC(C)=O)c(OC(C)=O)c1)NC(=O)/C=C/c1ccc(OC(C)=O)c(OC(C)=O)c1 (stereo unspecified) | > 100 | > 100 | – | > 100 | > 100 | > 100 | > 100 | > 100 | > 100 | – | – | – | – | – | – | – | – | –
